Where a SMILES comes first, the peptide text is derived from it. [ ]: non-standard residue; d: D form. The star is where a group is joined. X1 = Cc1ccc(Nc2ncc3c(n2)N(C)C(=O)N(c2cc(C(=O)*)ccc2C)C3)cn1; Aib = CC(C)(N)C(=O)O
How the values were obtained:
Assay in all cases: kinase selectivity profiling
Format in all cases: biochemical
Conditions in all cases: 10µM ATP, read-out: % inhibition (relative to DMSO)
IKKb/IKBKB = target: T1, IKKb/IKBKB (Homo sapiens, UniProt O14920)
T1 construct: purchased Reaction Biology Corp
Protocol: (§1) Full panel kinase profiling and kinase IC50 measurement were performed by using Reaction Biology Corp. (San Diego, USA).

NEK6 = target: T2, NEK6 (Homo sapiens, UniProt Q9HC98)
T2 construct: purchased Reaction Biology Corp
Protocol: as §1

DYRK1/DYRK1A = target: T3, DYRK1/DYRK1A (Homo sapiens, UniProt Q13627)
T3 construct: purchased Reaction Biology Corp
Protocol: as §1

MEKK3 = target: T4, MEKK3 (Homo sapiens, UniProt Q99759)
T4 construct: purchased Reaction Biology Corp
T4 sequence (Q99759 whole entry): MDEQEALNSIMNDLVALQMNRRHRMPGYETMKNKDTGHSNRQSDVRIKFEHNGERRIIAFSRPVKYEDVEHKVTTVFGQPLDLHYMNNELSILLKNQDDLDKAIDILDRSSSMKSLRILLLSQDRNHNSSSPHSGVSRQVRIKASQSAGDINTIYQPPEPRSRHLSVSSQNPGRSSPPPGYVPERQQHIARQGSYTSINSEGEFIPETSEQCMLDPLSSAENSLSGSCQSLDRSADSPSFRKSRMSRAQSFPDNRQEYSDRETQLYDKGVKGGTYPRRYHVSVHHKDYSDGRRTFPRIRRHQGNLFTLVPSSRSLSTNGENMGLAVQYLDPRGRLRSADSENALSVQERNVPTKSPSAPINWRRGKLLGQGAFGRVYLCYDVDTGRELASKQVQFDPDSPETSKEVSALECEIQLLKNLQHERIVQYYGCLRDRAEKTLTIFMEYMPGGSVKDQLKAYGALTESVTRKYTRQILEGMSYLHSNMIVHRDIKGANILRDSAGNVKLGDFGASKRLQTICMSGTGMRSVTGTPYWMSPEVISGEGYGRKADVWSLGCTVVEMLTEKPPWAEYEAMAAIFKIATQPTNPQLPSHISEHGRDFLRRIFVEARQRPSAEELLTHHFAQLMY
Protocol: as §1

CLK3 = target: T5, CLK3 (Homo sapiens, UniProt P49761)
T5 construct: purchased Reaction Biology Corp
Protocol: as §1

MLCK/MYLK = target: T6, MLCK/MYLK (Homo sapiens, UniProt Q15746)
T6 construct: purchased Reaction Biology Corp
Protocol: as §1

PKCb2 = target: T7, PKCb2 (Homo sapiens, UniProt P05771)
T7 construct: purchased Reaction Biology Corp
Protocol: as §1

BRAF = target: T8, BRAF (Homo sapiens, UniProt P15056)
T8 construct: purchased Reaction Biology Corp
Protocol: as §1

NEK7 = target: T9, NEK7 (Homo sapiens, UniProt Q8TDX7)
T9 construct: purchased Reaction Biology Corp
Protocol: as §1

CDK4/cyclin D1 = target: T10, CDK4/cyclin D1 (Homo sapiens, UniProt P11802)
T10 construct: purchased Reaction Biology Corp
Protocol: as §1

IKKa/CHUK = target: T11, IKKa/CHUK (Homo sapiens, UniProt O15111)
T11 construct: purchased Reaction Biology Corp
Protocol: as §1

EPHA5 = target: T12, EPHA5 (Homo sapiens, UniProt P54756)
T12 construct: purchased Reaction Biology Corp
T12 sequence (P54756 25-1037): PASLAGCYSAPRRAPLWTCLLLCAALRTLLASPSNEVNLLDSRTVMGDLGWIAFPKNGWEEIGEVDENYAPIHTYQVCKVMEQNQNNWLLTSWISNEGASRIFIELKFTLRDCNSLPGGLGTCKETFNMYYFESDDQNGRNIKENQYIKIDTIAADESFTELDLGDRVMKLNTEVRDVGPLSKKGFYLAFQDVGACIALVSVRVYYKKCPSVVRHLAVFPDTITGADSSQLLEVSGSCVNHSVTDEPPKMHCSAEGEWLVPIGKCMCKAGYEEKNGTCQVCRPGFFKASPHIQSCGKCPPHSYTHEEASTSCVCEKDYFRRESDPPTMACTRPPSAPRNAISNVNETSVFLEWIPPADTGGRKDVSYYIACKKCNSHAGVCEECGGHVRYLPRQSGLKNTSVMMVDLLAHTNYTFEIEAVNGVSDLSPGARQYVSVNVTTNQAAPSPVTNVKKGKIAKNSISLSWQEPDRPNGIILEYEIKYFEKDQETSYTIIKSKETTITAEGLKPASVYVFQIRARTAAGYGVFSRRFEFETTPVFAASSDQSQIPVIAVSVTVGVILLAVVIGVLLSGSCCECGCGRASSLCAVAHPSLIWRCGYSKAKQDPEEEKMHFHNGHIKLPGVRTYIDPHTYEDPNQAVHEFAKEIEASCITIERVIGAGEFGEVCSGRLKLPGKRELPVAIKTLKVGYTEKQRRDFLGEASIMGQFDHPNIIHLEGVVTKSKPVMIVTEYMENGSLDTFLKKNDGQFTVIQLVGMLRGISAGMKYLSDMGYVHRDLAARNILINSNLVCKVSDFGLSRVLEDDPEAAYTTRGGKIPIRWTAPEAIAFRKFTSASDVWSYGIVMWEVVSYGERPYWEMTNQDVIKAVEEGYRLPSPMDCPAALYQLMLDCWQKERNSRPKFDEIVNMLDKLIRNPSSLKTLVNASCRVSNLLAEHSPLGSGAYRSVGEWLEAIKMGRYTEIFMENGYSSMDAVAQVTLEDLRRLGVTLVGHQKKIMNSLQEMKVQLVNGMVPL
Protocol: as §1

BRK = target: T13, BRK (Homo sapiens, UniProt Q13882)
T13 construct: purchased Reaction Biology Corp
Protocol: as §1

CDK2/cyclin E = target: T14, CDK2/cyclin E (Homo sapiens, UniProt P24941)
T14 construct: purchased Reaction Biology Corp
Protocol: as §1

PAK6 = target: T15, PAK6 (Homo sapiens, UniProt Q9NQU5)
T15 construct: purchased Reaction Biology Corp
Protocol: as §1

Aurora B = target: T16, Aurora B (Homo sapiens, UniProt Q96GD4)
T16 construct: purchased Reaction Biology Corp
Protocol: as §1

COT1/MAP3K8 = target: T17, COT1/MAP3K8 (Homo sapiens, UniProt P41279)
T17 construct: purchased Reaction Biology Corp
Protocol: as §1

BRSK1 = target: T18, BRSK1 (Homo sapiens, UniProt Q8TDC3)
T18 construct: purchased Reaction Biology Corp
T18 sequence (Q8TDC3 whole entry): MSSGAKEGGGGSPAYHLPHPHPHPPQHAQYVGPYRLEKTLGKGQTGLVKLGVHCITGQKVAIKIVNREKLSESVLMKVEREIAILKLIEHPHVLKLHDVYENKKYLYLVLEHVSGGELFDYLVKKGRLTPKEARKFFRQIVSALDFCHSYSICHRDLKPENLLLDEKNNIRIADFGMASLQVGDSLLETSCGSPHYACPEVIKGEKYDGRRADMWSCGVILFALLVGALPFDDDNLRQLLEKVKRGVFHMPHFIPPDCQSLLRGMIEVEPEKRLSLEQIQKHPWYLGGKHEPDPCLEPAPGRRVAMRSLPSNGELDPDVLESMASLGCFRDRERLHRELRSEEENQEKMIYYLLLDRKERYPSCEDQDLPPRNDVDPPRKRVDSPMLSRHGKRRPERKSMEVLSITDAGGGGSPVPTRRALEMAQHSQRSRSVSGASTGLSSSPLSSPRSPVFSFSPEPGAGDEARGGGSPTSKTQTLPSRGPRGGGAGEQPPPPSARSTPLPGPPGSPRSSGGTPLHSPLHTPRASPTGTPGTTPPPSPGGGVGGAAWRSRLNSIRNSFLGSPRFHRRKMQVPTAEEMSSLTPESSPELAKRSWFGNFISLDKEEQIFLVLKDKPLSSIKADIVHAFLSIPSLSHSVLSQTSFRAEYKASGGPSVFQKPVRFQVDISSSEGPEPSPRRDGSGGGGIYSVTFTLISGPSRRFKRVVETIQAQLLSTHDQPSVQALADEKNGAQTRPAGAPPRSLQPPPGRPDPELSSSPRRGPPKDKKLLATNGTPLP
Protocol: as §1

TAOK2/TAO1 = target: T19, TAOK2/TAO1 (Homo sapiens, UniProt Q9UL54)
T19 construct: purchased Reaction Biology Corp
Protocol: as §1

CTK/MATK = target: T20, CTK/MATK (Homo sapiens, UniProt P42679)
T20 construct: purchased Reaction Biology Corp
Protocol: as §1

CLK2 = target: T21, CLK2 (Homo sapiens, UniProt P49760)
T21 construct: purchased Reaction Biology Corp
Protocol: as §1

Haspin = target: T22, Haspin (Homo sapiens, UniProt Q8TF76)
T22 construct: purchased Reaction Biology Corp
T22 sequence (Q8TF76 whole entry): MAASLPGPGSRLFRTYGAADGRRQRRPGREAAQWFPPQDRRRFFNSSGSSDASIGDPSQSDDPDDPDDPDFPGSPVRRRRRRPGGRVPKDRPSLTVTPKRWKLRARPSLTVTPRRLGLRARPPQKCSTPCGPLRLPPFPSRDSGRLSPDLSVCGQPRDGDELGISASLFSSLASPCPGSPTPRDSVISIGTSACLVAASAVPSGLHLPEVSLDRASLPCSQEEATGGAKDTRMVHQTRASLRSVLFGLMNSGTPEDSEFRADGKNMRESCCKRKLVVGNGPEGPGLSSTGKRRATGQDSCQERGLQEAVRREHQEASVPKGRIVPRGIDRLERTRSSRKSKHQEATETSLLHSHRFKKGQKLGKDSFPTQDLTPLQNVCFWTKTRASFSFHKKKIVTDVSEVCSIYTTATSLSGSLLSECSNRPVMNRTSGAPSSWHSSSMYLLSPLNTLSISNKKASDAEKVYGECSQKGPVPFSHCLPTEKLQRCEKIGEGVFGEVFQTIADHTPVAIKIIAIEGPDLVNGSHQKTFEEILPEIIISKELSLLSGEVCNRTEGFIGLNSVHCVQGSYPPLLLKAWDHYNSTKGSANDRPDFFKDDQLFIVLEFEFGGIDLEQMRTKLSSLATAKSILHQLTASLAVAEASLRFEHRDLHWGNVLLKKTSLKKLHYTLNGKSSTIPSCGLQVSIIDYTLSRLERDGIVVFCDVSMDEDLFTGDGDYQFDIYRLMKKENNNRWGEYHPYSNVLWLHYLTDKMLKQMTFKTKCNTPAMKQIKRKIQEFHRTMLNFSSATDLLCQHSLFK
Protocol: as §1

SIK2 = target: T23, SIK2 (Homo sapiens, UniProt Q9H0K1)
T23 construct: purchased Reaction Biology Corp
Protocol: as §1

CDK6/cyclin D1 = target: T24, CDK6/cyclin D1 (Homo sapiens, UniProt Q00534)
T24 construct: purchased Reaction Biology Corp
T24 sequence (Q00534 whole entry): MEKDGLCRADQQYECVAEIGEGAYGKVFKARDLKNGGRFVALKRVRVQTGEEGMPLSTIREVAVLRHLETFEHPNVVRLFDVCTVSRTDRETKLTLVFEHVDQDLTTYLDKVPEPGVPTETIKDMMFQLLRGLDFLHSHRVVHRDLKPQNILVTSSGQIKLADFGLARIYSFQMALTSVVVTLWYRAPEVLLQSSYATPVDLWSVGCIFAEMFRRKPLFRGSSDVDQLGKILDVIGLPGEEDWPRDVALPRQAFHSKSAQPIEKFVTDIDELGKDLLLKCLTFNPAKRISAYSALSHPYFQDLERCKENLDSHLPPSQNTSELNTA
T24 sequence (P24385 whole entry partner): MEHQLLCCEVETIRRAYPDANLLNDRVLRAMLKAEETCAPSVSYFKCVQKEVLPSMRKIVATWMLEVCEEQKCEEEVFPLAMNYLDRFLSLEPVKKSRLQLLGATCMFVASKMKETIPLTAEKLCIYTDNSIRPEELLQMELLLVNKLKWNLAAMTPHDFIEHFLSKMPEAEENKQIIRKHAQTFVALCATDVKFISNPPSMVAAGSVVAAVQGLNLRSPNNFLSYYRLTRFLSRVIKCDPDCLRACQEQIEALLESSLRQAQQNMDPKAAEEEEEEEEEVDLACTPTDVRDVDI
Protocol: as §1

ERBB2/HER2 = target: T25, ERBB2/HER2 (Homo sapiens, UniProt P04626)
T25 construct: purchased Reaction Biology Corp
Protocol: as §1

MKK7 = target: T26, MKK7 (Homo sapiens, UniProt O14733)
T26 construct: purchased Reaction Biology Corp
Protocol: as §1

YES/YES1 = target: T27, YES/YES1 (Homo sapiens, UniProt P07947)
T27 construct: purchased Reaction Biology Corp
Protocol: as §1

YSK4/MAP3K19 = target: T28, YSK4/MAP3K19 (Homo sapiens, UniProt Q56UN5)
T28 construct: purchased Reaction Biology Corp
Protocol: as §1

SRPK2 = target: T29, SRPK2 (Homo sapiens, UniProt P78362)
T29 construct: purchased Reaction Biology Corp
T29 sequence (P78362 whole entry): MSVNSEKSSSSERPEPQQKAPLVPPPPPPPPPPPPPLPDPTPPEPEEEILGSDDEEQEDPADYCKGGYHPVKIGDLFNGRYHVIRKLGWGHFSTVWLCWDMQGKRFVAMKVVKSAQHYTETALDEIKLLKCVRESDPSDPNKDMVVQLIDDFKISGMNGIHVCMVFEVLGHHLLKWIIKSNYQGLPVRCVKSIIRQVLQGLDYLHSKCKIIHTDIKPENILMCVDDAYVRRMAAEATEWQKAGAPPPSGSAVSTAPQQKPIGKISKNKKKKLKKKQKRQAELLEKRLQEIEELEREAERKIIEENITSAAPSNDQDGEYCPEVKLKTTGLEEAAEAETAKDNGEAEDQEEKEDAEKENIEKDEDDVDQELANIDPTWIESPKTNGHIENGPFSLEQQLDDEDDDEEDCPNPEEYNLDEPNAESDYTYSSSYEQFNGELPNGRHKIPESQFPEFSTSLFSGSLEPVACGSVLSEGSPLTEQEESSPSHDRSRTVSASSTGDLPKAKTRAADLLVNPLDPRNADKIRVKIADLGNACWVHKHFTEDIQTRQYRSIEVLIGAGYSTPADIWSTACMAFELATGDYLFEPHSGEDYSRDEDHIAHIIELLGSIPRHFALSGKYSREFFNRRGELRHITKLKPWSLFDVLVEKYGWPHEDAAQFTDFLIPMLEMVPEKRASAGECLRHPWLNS
Protocol: as §1

TESK1 = target: T30, TESK1 (Homo sapiens, UniProt Q15569)
T30 construct: purchased Reaction Biology Corp
Protocol: as §1

CDK5/p35 = target: T31, CDK5/p35 (Homo sapiens, UniProt Q00535)
T31 construct: purchased Reaction Biology Corp
Protocol: as §1

SIK3 = target: T32, SIK3 (Homo sapiens, UniProt Q9Y2K2)
T32 construct: purchased Reaction Biology Corp
Protocol: as §1

JNK2 = target: T33, JNK2 (Homo sapiens, UniProt P45984)
T33 construct: purchased Reaction Biology Corp
T33 sequence (P45984 whole entry): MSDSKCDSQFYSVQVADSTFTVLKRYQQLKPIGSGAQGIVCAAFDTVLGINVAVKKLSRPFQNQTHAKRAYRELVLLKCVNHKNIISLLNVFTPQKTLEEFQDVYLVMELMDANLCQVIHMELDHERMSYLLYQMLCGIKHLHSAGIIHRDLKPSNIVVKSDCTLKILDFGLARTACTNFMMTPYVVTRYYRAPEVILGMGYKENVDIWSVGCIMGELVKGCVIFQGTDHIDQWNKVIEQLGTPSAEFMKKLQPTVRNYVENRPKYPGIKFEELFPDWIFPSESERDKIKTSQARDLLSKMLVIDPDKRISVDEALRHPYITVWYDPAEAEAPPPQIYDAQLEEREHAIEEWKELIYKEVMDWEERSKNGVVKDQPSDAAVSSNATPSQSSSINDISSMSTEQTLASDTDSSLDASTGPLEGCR
Protocol: as §1

CAMK2a = target: T34, CAMK2a (Homo sapiens, UniProt Q9UQM7)
T34 construct: purchased Reaction Biology Corp
Protocol: as §1

STK39/STLK3 = target: T35, STK39/STLK3 (Homo sapiens, UniProt Q9UEW8)
T35 construct: purchased Reaction Biology Corp
Protocol: as §1

PYK2 = target: T36, PYK2 (Homo sapiens, UniProt Q14289)
T36 construct: purchased Reaction Biology Corp
Protocol: as §1

CDK9/cyclin T2 = target: T37, CDK9/cyclin T2 (Homo sapiens, UniProt P50750)
T37 construct: purchased Reaction Biology Corp
Protocol: as §1

MRCKb/CDC42BPB = target: T38, MRCKb/CDC42BPB (Homo sapiens, UniProt Q9Y5S2)
T38 construct: purchased Reaction Biology Corp
Protocol: as §1

DMPK = target: T39, DMPK (Homo sapiens, UniProt Q09013)
T39 construct: purchased Reaction Biology Corp
Protocol: as §1

MAPKAPK3 = target: T40, MAPKAPK3 (Homo sapiens, UniProt Q16644)
T40 construct: purchased Reaction Biology Corp
Protocol: as §1

c-Kit = target: T41, c-Kit (Homo sapiens, UniProt P10721)
T41 construct: purchased Reaction Biology Corp
Protocol: as §1

Lyn = target: T42, Lyn (Homo sapiens, UniProt P07948)
T42 construct: purchased Reaction Biology Corp
Protocol: as §1

## Cc1ccc(Nc2ncc3c(n2)N(C)C(=O)N(c2cc(C(=O)N[C@H](C(=O)N4CCC[C@H]4C(=O)NC(C)(C)C(=O)N[C@@H](CC(C)C)C(=O)N(C)C)C(C)C)ccc2C)C3)cn1 [7a, (S)-N-(1-(((S)-1-(dimethylamino)-4-methyl-1-oxopentan-2-yl)amino)-2-methyl-1-oxopropan-2-yl)-1-((4-methyl-3-(1-methyl-7-((6-methylpyridin-3-yl)amino)-2-oxo-1,4-dihydropyrimido[4,5-d]pyrimidin-3(2H)-yl)benzoyl)-L-valyl)pyrrolidine-2-carboxamide] (X1-VP[Aib]L-NMe2)
IKKb/IKBKB
  inhibition at 1 µM: 0%
NEK6
  inhibition at 1 µM: 0%
DYRK1/DYRK1A
  inhibition at 1 µM: 20%
MEKK3
  inhibition at 1 µM: 11%
CLK3
  inhibition at 1 µM: 17%
MLCK/MYLK
  inhibition at 1 µM: 0%
PKCb2
  inhibition at 1 µM: 0%
BRAF
  inhibition at 1 µM: 7%
NEK7
  inhibition at 1 µM: 2%
CDK4/cyclin D1
  inhibition at 1 µM: 0%
IKKa/CHUK
  inhibition at 1 µM: 6%
EPHA5
  inhibition at 1 µM: 23%
BRK
  inhibition at 1 µM: 0%
CDK2/cyclin E
  inhibition at 1 µM: 0%
PAK6
  inhibition at 1 µM: 0%
Aurora B
  inhibition at 1 µM: 6%
COT1/MAP3K8
  inhibition at 1 µM: 1%
BRSK1
  inhibition at 1 µM: 2%
TAOK2/TAO1
  inhibition at 1 µM: 4%
CTK/MATK
  inhibition at 1 µM: 10%
CLK2
  inhibition at 1 µM: 0%
Haspin
  inhibition at 1 µM: 1%
SIK2
  inhibition at 1 µM: 2%
CDK6/cyclin D1
  inhibition at 1 µM: 0%
ERBB2/HER2
  inhibition at 1 µM: 10%
MKK7
  inhibition at 1 µM: 2%
YES/YES1
  inhibition at 1 µM: 62%
YSK4/MAP3K19
  inhibition at 1 µM: 0%
SRPK2
  inhibition at 1 µM: 0%
TESK1
  inhibition at 1 µM: 0%
CDK5/p35
  inhibition at 1 µM: 6%
SIK3
  inhibition at 1 µM: 12%
JNK2
  inhibition at 1 µM: 2%
CAMK2a
  inhibition at 1 µM: 8%
STK39/STLK3
  inhibition at 1 µM: 0%
PYK2
  inhibition at 1 µM: 8%
CDK9/cyclin T2
  inhibition at 1 µM: 0%
MRCKb/CDC42BPB
  inhibition at 1 µM: 0%
DMPK
  inhibition at 1 µM: 0%
MAPKAPK3
  inhibition at 1 µM: 2%
c-Kit
  inhibition at 1 µM: 27%
Lyn
  inhibition at 1 µM: 73%

— paper PMC9067983, “Identification of highly selective type II kinase inhibitors with chiral peptidomimetic tails” (Journal of Enzyme Inhibition and Medicinal Chemistry, 2022)
